Measured values reported in patent publication US10285982B2, “3-(1H-pyrrolo[2,3-B]pyridin-2-yl)-1H-pyrazolo[3,4-C]pyridines and therapeutic uses thereof” (Samumed, LLC, priority 2015, dated 2019).

Assays:
[1] = tested on: Wnt activity (Sp5-Luc reporter, SW480 colon carcinoma cells); assay: Wnt activity screening assay, Sp5-Luc reporter gene in SW480 cells; assay type: cell-based; conditions: Homo sapiens; for inhibition at 10 µM: given where EC50 >10 μM, read-out: percent inhibition at 10 μM; for EC50: overnight incubation
From the text: The screening assay for Wnt activity is described as follows. Reporter cell lines can be generated by stably transducing cancer cell lines (e.g., colon cancer) or primary cells (e.g., IEC-6 intestinal cells) with a lentiviral construct that includes a Wnt-responsive promoter driving expression of the firefly luciferase gene.
SW480 colon carcinoma cells were transduced with a lentiviral vector expressing luciferase with a human Sp5 promoter consisting of a sequence of eight TCF/LEF binding sites. SW480 cells stably expressing the Sp5-Luc reporter gene and a hygromycin resistance gene were selected by treatment with 150 μg/mL of hygromycin for 7 days. These stably transduced SW480 cells were expanded in cell culture and used for all further screening activities. Each compound was dissolved in DMSO as a 10 mM stock and used to prepare compound source plates. Serial dilution (1:3, 10-point dose-response curves starting from 10 μM) and compound transfer was performed using the ECHO 550 (Labcyte, Sunnyvale, Calif.) into 384-well white solid bottom assay plates (Greiner Bio-One) with appropriate DMSO backfill for a final DMSO concentration of 0.1%. For Sp5-Luc reporter gene assays, the cells were plated at 4,000 cells/well in 384-well plates with medium containing 1% fetal bovine serum and incubated overnight at 37° C. and 5% CO2. Following incubation, 20 μl of BrightGlo luminescence reagent (Promega) was added to each well of the 384-well assay plates. The plates were placed on an orbital shaker for 2 min and then luminescence was quantified using the Envision (Perkin Elmer) plate reader. Readings were normalized to DMSO only treated cells, and normalized activities were utilized for EC50 calculations using the dose-response log (inhibitor) vs. response-variable slope (four parameters) nonlinear regression feature available in GraphPad Prism 5.0 (or Dotmatics). For EC50 of >10 μM, the percent inhibition at 10 μM is provided.

IL-6 (THP-1 cells) = assay: IL-6 inhibition in LPS-stimulated THP-1 cells (HTRF); assay type: cell-based; conditions: Homo sapiens; for EC50: IL-6 in THP-1 cells, LPS 500 ng/mL, 22 hours; for inhibition at 10 µM: given where EC50 >10 μM, IL-6, THP-1 cells, LPS, read-out: percent inhibition at 10 μM
Description: Human monocyte cell line (THP-1 cells; Catalog # TIB-202, ATCC, Manassas, Va.) were cultured in Roswell Park Memorial Institute (RPMI) 1640 Medium (Catalog #21870-100, Buffalo, N.Y.) with 1% L-glutamine, 1% HEPES, 1% Sodium Pyruvate, 2% Sodium Bicarbonate supplemented with 100 units/mL penicillin, 50 μg/mL streptomycin, 2-mercaptoethanol (0.05 mM) [basal medium] and 10% fetal bovine serum (Catalog #16140089, Life Technologies, Carlsbad, Calif.) at 37° C. and 5% CO2.
THP-1 cells were cultured in basal media with 1% FBS for 24 hours before the start of the assay. Each compound was dissolved in DMSO as a 10 mM stock and used to prepare compound source plates. Serial dilution (1:3, 10-point dose-response curves starting from 10 μM) and compound transfer was performed using the ECHO 550 (Labcyte, Sunnyvale, Calif.) into 384-well white low volume assay plates (Greiner Bio-One) with appropriate DMSO backfill for a final DMSO concentration of 0.1%. THP-1 cells were plated at 5000 cells/well in the 384-well plates and incubated at 37° C. for 2 h. 500 ng/mL of LPS was added after 2 hours and cells were incubated for another 22 hours at 37° C. Plates were spun in a centrifuge for 1 minute at […] and a mixture of anti-IL6 XL665, and anti-IL6 Cryptate diluted in reconstitution buffer (Cisbio Inc.) was added to each well. Following incubation for 3 hrs at room temperature, Homogeneous Time-Resolved Fluorescence (HTRF) was measured using the Envision (Perkin Elmer) at 665 nm and […]. The ratio of fluorescence at 665 nm to 620 nm was used as a readout for IL6 quantification. All samples were processed in duplicate. Readings were normalized to DMSO treated cells and normalized activities were utilized for EC50 calculations using the dose-response log (inhibitor) vs. response-variable slope (four parameters) nonlinear regression feature available in GraphPad Prism 5.0 (or Dotmatics). For EC50 of >10 μM, the percent inhibition at 10 μM is provided.

SMILES	inhibition at 10 µM [1]	EC50 [1]	EC50 (IL-6 (THP-1 cells))	inhibition at 10 µM (IL-6 (THP-1 cells))
c1cncc(-c2cc3c(-c4cc5cccnc5[nH]4)n[nH]c3cn2)c1 [Compound 256, 5-(Pyridin-3-yl)-3-(1H-pyrrolo[2,3-b]pyridin-2-yl)-1H-pyrazolo[3,4-c]pyridine]	57.7%	> 10 µM	0.023 µM	
CC(C)CC(=O)Nc1cncc(-c2cc3c(-c4cc5c(-c6ccncc6)ccnc5[nH]4)n[nH]c3cn2)c1 [Compound 114, 3-Methyl-N-(5-(3-(4-(pyridin-4-yl)-1H-pyrrolo[2,3-b]pyridin-2-yl)-1H-pyrazolo[3,4-c]pyridin-5-yl)pyridin-3-yl)butanamide]	9.6%	> 10 µM	> 10 µM	13%
CCCCC(=O)Nc1cncc(-c2cc3c(-c4cc5c(-c6ccccc6F)ccnc5[nH]4)n[nH]c3cn2)c1 [Compound 75, N-(5-(3-(4-(2-Fluorophenyl)-1H-pyrrolo[2,3-b]pyridin-2-yl)-1H-pyrazolo [3,4-c]pyridin-5-yl)pyridin-3-yl)pentanamide]		0.542 µM	> 10 µM	0%
O=C(Cc1ccccc1)Nc1cncc(-c2cc3c(-c4cc5c(-c6ccncc6)ccnc5[nH]4)n[nH]c3cn2)c1 [Compound 122, 2-Phenyl-N-(5-(3-(4-(pyridin-4-yl)-1H-pyrrolo[2,3-b]pyridin-2-yl)-1H-pyrazolo[3,4-c]pyridin-5-yl)pyridin-3-yl)acetamide]	7.9%	> 10 µM	> 10 µM	34.8%
O=C(Nc1cncc(-c2cc3c(-c4cc5c(-c6cccnc6)ccnc5[nH]4)n[nH]c3cn2)c1)c1ccccc1 [Compound 95, N-(5-(3-(4-(Pyridin-3-yl)-1H-pyrrolo[2,3-b]pyridin-2-yl)-1H-pyrazolo[3,4-c]pyridin-5-yl)pyridin-3-yl)benzamide]	8.7%	> 10 µM	> 10 µM	31.8%
CC(C)CC(=O)Nc1cncc(-c2cc3c(-c4cc5cccnc5[nH]4)n[nH]c3cn2)c1 [Compound 254, N-(5-(3-(1H-Pyrrolo[2,3-b]pyridin-2-yl)-1H-pyrazolo[3,4-c]pyridin-5-yl)pyridin-3-yl)-3-methylbutanamide]	12.4%	> 10 µM	0.529 µM	
Cn1cc(-c2cc3c(-c4cc5cccnc5[nH]4)n[nH]c3cn2)cn1 [Compound 652, 5-(1-Methyl-1H-pyrazol-4-yl)-3-(1H-pyrrolo[2,3-b]pyridin-2-yl)-1H-pyrazolo[3,4-c]pyridine]	21.6%	> 10 µM	> 10 µM	15.2%
CN1CCN(c2ccnc3[nH]c(-c4n[nH]c5cnc(-c6cncc(NC(=O)CC7CCNCC7)c6)cc45)cc23)CC1 [Compound 641, N-(5-(3-(4-(4-Methylpiperazin-1-yl)-1H-pyrrolo[2,3-b]pyridin-2-yl)-1H-pyrazolo[3,4-c]pyridin-5-yl)pyridin-3-yl)-2-(piperidin-4-yl)acetamide]	8%	> 10 µM	> 10 µM	29.6%
CN(C)Cc1cncc(-c2cc3c(-c4cc5c(-c6ccccc6F)ccnc5[nH]4)n[nH]c3cn2)c1 [Compound 69, 1-(5-(3-(4-(2-Fluorophenyl)-1H-pyrrolo[2,3-b]pyridin-2-yl)-1H-pyrazolo [3,4-c]pyridin-5-yl)pyridin-3-yl)-N,N-dimethylmethanamine]	11.3%	> 10 µM	> 10 µM	17.4%
c1cncc(-c2ccnc3[nH]c(-c4n[nH]c5cnc(-c6cncnc6)cc45)cc23)c1 [Compound 111, 3-(4-(Pyridin-3-yl)-1H-pyrrolo[2,3-b]pyridin-2-yl)-5-(pyrimidin-5-yl)-1H-pyrazolo[3,4-c]pyridine]	7.8%	> 10 µM	> 10 µM	37.4%
CC(C)CC(=O)Nc1cncc(-c2cc3c(-c4cc5c(-c6ccc(F)cc6)ccnc5[nH]4)n[nH]c3cn2)c1 [Compound 30, N-(5-(3-(4-(4-Fluorophenyl)-1H-pyrrolo[2,3-b]pyridin-2-yl)-1H-pyrazolo [3,4-c]pyridin-5-yl)pyridin-3-yl)-3-methylbutanamide]		0.444 µM	> 10 µM	35.6%
Nc1cncc(-c2cc3c(-c4cc5c(-c6ccoc6)ccnc5[nH]4)n[nH]c3cn2)c1 [Compound 311, 5-(3-(4-(Furan-3-yl)-1H-pyrrolo[2,3-b]pyridin-2-yl)-1H-pyrazolo[3,4-c]pyridin-5-yl)pyridin-3-amine]	23.2%	> 10 µM	> 10 µM	36.3%
O=C(Nc1cncc(-c2cc3c(-c4cc5c(-c6ccc(F)cc6)ccnc5[nH]4)n[nH]c3cn2)c1)C1CCC1 [Compound 49, N-(5-(3-(4-(4-Fluorophenyl)-1H-pyrrolo[2,3-b]pyridin-2-yl)-1H-pyrazolo [3,4-c]pyridin-5-yl)pyridin-3-yl)cyclobutanecarboxamide]		0.747 µM	> 10 µM	26.1%
O=C(Cc1ccccc1)Nc1cncc(-c2cc3c(-c4cc5cccnc5[nH]4)n[nH]c3cn2)c1 [Compound 262, N-(5-(3-(1H-Pyrrolo[2,3-b]pyridin-2-yl)-1H-pyrazolo[3,4-c]pyridin-5-yl)pyridin-3-yl)-2-phenylacetamide]	9.1%	> 10 µM	> 10 µM	26.7%
O=C(Nc1cncc(-c2cc3c(-c4cc5c(-c6cccc(F)c6)ccnc5[nH]4)n[nH]c3cn2)c1)c1ccccc1 [Compound 11, N-(5-(3-(4-(3-Fluorophenyl)-1H-pyrrolo[2,3-b]pyridin-2-yl)-1H-pyrazolo [3,4-c]pyridin-5-yl)pyridin-3-yl)benzamide]	8.2%	> 10 µM	> 10 µM	38.9%
c1csc(-c2ccnc3[nH]c(-c4n[nH]c5cnc(-c6cncc(OC7CCCCC7)c6)cc45)cc23)c1 [Compound 703, 5-(5-(Cyclohexyloxy)pyridin-3-yl)-3-(4-(thiophen-2-yl)-1H-pyrrolo[2,3-b]pyridin-2-yl)-1H-pyrazolo[3,4-c]pyridine]	13.6%	> 10 µM	> 10 µM	43.3%
CCNCc1cncc(-c2cc3c(-c4cc5c(-c6ccccc6F)ccnc5[nH]4)n[nH]c3cn2)c1 [Compound 62, N-((5-(3-(4-(2-Fluorophenyl)-1H-pyrrolo[2,3-b]pyridin-2-yl)-1H-pyrazolo [3,4-c]pyridin-5-yl)pyridin-3-yl)methyl)ethanamine]	6.8%	> 10 µM	> 10 µM	24.8%
Oc1cncc(-c2cc3c(-c4cc5c(-c6ccc(F)cc6)ccnc5[nH]4)n[nH]c3cn2)c1 [Compound 533, 5-(3-(4-(4-Fluorophenyl)-1H-pyrrolo[2,3-b]pyridin-2-yl)-1H-pyrazolo[3,4-c]pyridin-5-yl)pyridin-3-ol]		0.456 µM	> 10 µM	7.2%
